Holding throughout (format): cell-based, human
The test system of assay [1] is STAT1. The assay is described as follows: Western blot of IFNg/JAK/STAT signaling pathway: STAT1. On the procedure:
(§1) Protein lysates were generated using Cell Extraction Buffer (Life Technologies), supplemented with SigmaFAST Protease Inhibitor Tablets (Sigma) and Phosphatase Inhibitor Cocktail 1 and 2 (Sigma). Lysates centrifuged at 20,000×g for 10 minutes at 4° C., and the supernatants were then removed for analysis by Western Blot (WB). Samples were treated with NuPage Novex LDS and SRA Buffers (Life Technologies) and loaded onto a Bis-Tris Gel (Life Technologies) alongside SeeBlue Plus2 molecular weight standard (Life Technologies). Gels were transferred to nitrocellulose membranes using the iBlot system (Life Technologies) and then blocked with Odyssey Blocking Buffer (LI-COR) for 1 hour at room temperature. Gels were stained with antibodies against human PD-L1 (in-house), β-actin (Sigma); p/t STAT1, p-STAT3-Y705, p-STAT3-5727, and t-STAT3 (all Cell Signaling) diluted in Odyssey Blocking Buffer+0.01% Tween-20. Primary antibodies were detected secondary antibodies from LI-COR in Odyssey Blocking Buffer+0.01% Tween-20+0.001% SDS and analyzed on the Odyssey CLx system (LI-COR).
Next, western blots were performed to determine whether the IFNg/JAK/STAT signaling pathway plays a role in the IFNg-mediated induction of PD-L1 transcript and protein levels in A427, H322T, H292, and H358. […]
In general terms: A western blot detects proteins with antibodies after separation by electrophoresis.

Assay [2] has as its system PD-L1 RNA expression. Kind of assay: PD-L1 RNA expression by qRT-PCR in treated NSCLC cell lines (FIG. 3, 4A). On the procedure:
(§2) NSCLC cell lines were procured from American Type Cell Culture (ATCC) or academic sources and cultured in RPMI 1640 medium supplemented with 10% fetal bovine serum (FBS) and 2 mM L-glutamine. Cells were detached for splitting and/or experimental analysis following a PBS wash and incubation with Accutase detachment medium (Sigma). Cells were treated with 0.1 mM trichostatin A (“TSA,” Sigma) and/or 1 ng/mL interferon gamma (IFNγ) for 24 hours and 1 mM 5-azacitidine-dC (5-aza-dC, Sigma), for 3 days qd (i.e., once a day) or 6 days q2d (i.e., every other day).
Buffer RLT Plus (Qiagen) was used to lyse the cells for RNA and DNA extraction from the same lysate using the AllPrep DNA/RNA Mini Kit (Qiagen). RNA expression was analyzed by microarray on the GeneChip Human Genome U133 Plus 2.0 Array (Affymetrix) by Asuragen, Inc, and by qPCR using TaqMan Gene Expression Assays (Life Technologies). Data was analyzed using Genomics Suite (Partek), Spotfire (TIBCO), JMP (SAS), and IPA (Ingenuity). DNA was analyzed on the INFINIUM® HumanMethylation450 BeadChip (Illumina). DNA was bisulfite-modified using the Zymo DNA Gold Methylation kit (Zymo Research) and amplified with bisulfite specific sequencing primers targeting the CD274 promoter region. PCR products were TA-subcloned and sequenced using standard methods (ABI). ABI sequence files were analyzed using BIQ Analyzer software (C. Bock).
Cells from each of the cell lines were exposed to one of five conditions: (1) no treatment; (2) treatment with 1 mM 5-azacitidine-dC (5-aza-dC, a DNA demethylation agent); (3) treatment with 0.1 mM trichostatin A (TSA, a class I and class II mammalian histone […]); (4) treatment with 1 ng/mL interferon gamma (IFNg); or (5) treatment with a combination of 5-aza-dC, TSA, and IFNg. PD-L1 RNA expression was then measured by qRT-PCR.
Background: Real-time PCR tracks product formation cycle by cycle.

Assay [3] has as its system PD-L1 protein expression. Kind of assay: Surface PD-L1 protein expression by FACS after IFNg treatment (FIG. 4A). On the procedure: as §2
For FACS analysis, cells were detached then washed twice in FBS Staining Buffer (BD Biosciences). Cells were then stained with either PE-conjugated anti-human PD-L1 or isotype control (BD Biosciences) and then washed and analyzed on the FACSCanto II Analyzer (BD Biosciences).
PD-L1 protein expression loosely correlated with RNA expression in this subset of cell lines, both at baseline and following IFNg stimulation. […] In the A427 cell line, PD-L1 protein expression remained low. In the H292 and H358 cell lines, PD-L1 protein expression increased 3-4 fold, and in H322T, PD-L1 protein expression increased more than 48-fold as compared to baseline levels. […] As discussed above, baseline levels of PD-L1 protein in H322T were low.

Assay [4] concerns PD-L1 expression. Kind of assay: PD-L1 expression after IFNg and/or STAT1 and STAT3 siRNA knockdown in A427 and H358 (FIG. 4C). To be noted: H358 (unmethylated). On the procedure: as §1
Next, the relationship between PD-L1 promoter methylation and the IFNg/JAK/STAT pathway was investigated in A427 and H358 using siRNA. […]

The results in this text go back to patent US11254987B2, “PD-L1 promoter methylation in cancer” (Genentech, Inc., priority 2015, dated 2022).

Consider “interferon gamma [IFNg, interferon gamma, used at 1 ng/mL to stimulate cells]”, for which the “induction of activated STAT1” value in assay [1] (A427 following stimulation with IFNg (FIG. 4C)) was “strong induction”. For the same substance, in assay [1] (all four cell lines (A427, H322T, H292, H358) following IFNg stimulation), the p-STAT1 activation entry is “robust”. Moreover, the “PD-L1 RNA expression” value is listed as 0.012 2^−DCt in assay [2] (A427 (high methylation) after IFNg stimulation); 0.102 2^−DCt in assay [2] (H292 (low methylation) after IFNg stimulation); 1.356 2^−DCt in assay [2] (H322T (medium methylation) after IFNg stimulation, baseline 0.018); “no significant changes” in assay [2] (H358 (low methylation, high baseline) after IFNg stimulation). Besides, in assay [2] (A427, H322T, H292 and H358 stimulated with IFNg), the “PD-L1 RNA induction” value is given as “increases”. The PD-L1 protein expression result in assay [3] (A427 following IFNg treatment) was “remained low”. Besides, the “PD-L1 protein expression increase” value in assay [3] (H292 following IFNg treatment, vs baseline) is given as 3-4 fold; in assay [3] (H322T following IFNg treatment, compared to baseline levels), “more than 48 fold”; in assay [3] (H358 following IFNg treatment, vs baseline), 3-4 fold. Further, in assay [3] (all four cell lines (A427, H322T, H292, H358) following IFNg treatment), the “surface PD-L1 protein levels” value is “increased”. Besides, the PD-L1 expression entry in assay [4] is listed as “further induced”.
